Test results reported in PMC9304322, “Targeting retinoic acid receptor alpha-corepressor interaction activates chaperone-mediated autophagy and protects against retinal degeneration” (Nature Communications, 2022).
“And” between values parts separate entries of the source, which are not always exact repeats. Equal values may be shown once. Read-outs that look alike come from different tables or passages of the source.

Assay: Pharmacokinetic analysis, plasma and brain;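 for Fig. 3a level, MEAN: plasma concentration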;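 for Fig. 3a level, single animals 1-3: plasma concentration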;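 for Fig. 3b level, MEAN: brain concentration in ng/g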;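 for Fig. 3b level, single animals 1-3: brain concentration in ng/g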
Format: in vivo, ICR (CD-1) male mice
Parameters: Fig. 3a level, single animals 1-3 / Fig. 3a level, MEAN / Fig. 3b level, single animals 1-3 / Fig. 3b level, MEAN: unit not given here
Conditions: for Kp at 0.083 h / Kp at 0.25 h / Kp at 0.5 h / Kp at 1 h / Kp at 2 h / Kp at 4 h / Kp at 8 h / Kp at 24 h / half-life: male, ICR (CD-1), mouse; for half-life: mice
Protocol: ICR (CD-1) male mice were fasted at least three hours and water was available ad libitum before the study. Animals were housed in a controlled environment, target conditions: temperature 18 to 29 °C, relative humidity 30 to 70%. Temperature and relative humidity was monitored daily. An electronic time-controlled lighting system was used to provide a 12 h light/12 h dark cycle. 3 mice for each indicated time point were administered 30 mg/Kg CA39 or CA77 by oral gavage or 1 mg/Kg CA39 or CA77 by intravenous injection using 30% PEG-400, 65% D5W (5% dextrose in water), 5% Tween-80 vehicle. Mice were sacrificed, and brain samples were harvested at […], 0.25 h, 0.5 h, 1 h, 2 h, 4 h, 8 h, 24 h, and analyzed for CA39 or CA77 levels using LC-MS/MS. Pharmacokinetics parameters were calculated using Phoenix WinNonlin 6.3. Experiments performed at SIMM-SERVIER joint Biopharmacy Laboratory.

Clc1ccc2c(c1)OCC(c1ccc(-c3ccccc3)cc1)=N2 [CA39]
Fig. 3a level, MEAN (IV, Time 0.083 h): 61.1254
Fig. 3b level, MEAN (IV, Time 0.083 h): 61.1254
Fig. 3a level, MEAN (IV, Time 0.25 h): 57.4762
Fig. 3a level, single animals 1-3 (IV, Time 0.25 h): 71.3655 and 52.5276 and 48.5355
Fig. 3b level, MEAN (IV, Time 0.25 h): 421.667
Fig. 3b level, single animals 1-3 (IV, Time 0.25 h): 231 and 301 and 733
Fig. 3a level, MEAN (IV, Time 0.5 h): 96.4163
Fig. 3a level, single animals 1-3 (IV, Time 0.5 h): 97.156 and 95.5316 and 96.5614
Fig. 3b level, single animals 1-3 (IV, Time 0.5 h): 253.229 and 219.924 and 96.4385
Fig. 3a level, single animals 1-3 (IV, Time 1 h): 65.9772 and 7.434 and 72.9585
Fig. 3b level, single animals 1-3 (IV, Time 1 h): 838.595 and 293.717 and 133.533
Fig. 3a level, MEAN (IV, Time 2 h): 127.026
Fig. 3a level, single animals 1-3 (IV, Time 2 h): 125.63 and 157.282 and 98.1671
Fig. 3b level, MEAN (IV, Time 2 h): 775.11
Fig. 3b level, single animals 1-3 (IV, Time 2 h): 875.96 and 812.85 and 636.52
Fig. 3a level, MEAN (IV, Time 4 h): 46.5654
Fig. 3a level, single animals 1-3 (IV, Time 4 h): 39.4404 and 55.2956 and 44.9603
Fig. 3b level, MEAN (IV, Time 4 h): 580.088
Fig. 3b level, single animals 1-3 (IV, Time 4 h): 625.12 and 582.925 and 532.22
Fig. 3a level, single animals 1-3 (IV, Time 8 h): 53.1345 and 36.7923 and 35.4264
Fig. 3b level, single animals 1-3 (IV, Time 8 h): 688.34 and 475.587 and 740.905
Fig. 3a level, MEAN (IV, Time 24 h): 8.834
Fig. 3a level, single animals 1-3 (IV, Time 24 h): 7.122 and 12.7302 and 6.65
Fig. 3b level, single animals 1-3 (IV, Time 24 h): 137.514 and 156.133 and 197.201
B/P, Brian/Plasma (P.O., Time 0.25 h, individual animals): 3.427 and 5.487
B/P, Brian/Plasma (P.O., Time 0.5 h, individual animals): 1.74 and 1.607
B/P, Brian/Plasma (P.O., Time 1 h, individual animals): 6.477 and 4.807
B/P, Brian/Plasma (P.O., Time 2 h, individual animals): 7.798 and 6.806
B/P, Brian/Plasma (P.O., Time 4 h, individual animals): 5.185 and 9.171 and 14.1075
B/P, Brian/Plasma (P.O., Time 8 h, individual animals): 9.709 and 14.5255
B/P, Brian/Plasma (P.O., Time 24 h, individual animals): 21.0683
Fig. 3b level, MEAN (PO, Time 0.25 h): 110.007
Fig. 3b level, single animals 1-3 (PO, Time 0.25 h): 143.332 and 91.145 and 95.5425
Fig. 3b level, MEAN (PO, Time 0.5 h): 246.705
Fig. 3b level, single animals 1-3 (PO, Time 0.5 h): 250.188 and 244.993 and 244.933
Fig. 3b level, single animals 1-3 (PO, Time 1 h): 302.13 and 49.5585 and 266.305
Fig. 3a level, MEAN (PO, Time 2 h): 103.157
Fig. 3a level, single animals 1-3 (PO, Time 2 h): 111.712 and 104.237 and 93.5216
Fig. 3b level, MEAN (PO, Time 2 h): 582.568
Fig. 3b level, single animals 1-3 (PO, Time 2 h): 673.81 and 487.02 and 586.875
Fig. 3a level, MEAN (PO, Time 4 h): 73.9526
Fig. 3a level, single animals 1-3 (PO, Time 4 h): 120.568 and 63.5639 and 37.7259
Fig. 3b level, MEAN (PO, Time 4 h): 609.462
Fig. 3b level, single animals 1-3 (PO, Time 4 h): 583.44 and 598.755 and 646.19
Fig. 3a level, single animals 1-3 (PO, Time 8 h): 41.4288 and 48.9846 and 51.0072
Fig. 3b level, single animals 1-3 (PO, Time 8 h): 620.035 and 487.115 and 529.995
Fig. 3a level, MEAN (PO, Time 24 h): 11.2914
Fig. 3a level, single animals 1-3 (PO, Time 24 h): 11.8674 and 7.411 and 14.5959
Fig. 3b level, MEAN (PO, Time 24 h): 118.958
Fig. 3b level, single animals 1-3 (PO, Time 24 h): 104.574 and 178.19 and 74.11
B/P, Brian/Plasma (i.v., Time 0.083 h, individual animals): 1.236 and 1.666
B/P, Brian/Plasma (i.v., Time 0.25 h, individual animals): 1.735 and 1.969
B/P, Brian/Plasma (i.v., Time 0.5 h, individual animals): 2.565 and 2.537
B/P, Brian/Plasma (i.v., Time 1 h, individual animals): 6.667 and 3.6501
B/P, Brian/Plasma (i.v., Time 2 h, individual animals): 3.096 and 5.978
B/P, Brian/Plasma (i.v., Time 4 h, individual animals): 10.8283 and 14.3725
B/P, Brian/Plasma (i.v., Time 8 h, individual animals): 13.2396 and 14.9605
B/P, Brian/Plasma (i.v., Time 24 h, individual animals): 13.9974
Kp at 0.083 h (brain, iv, 1 mg/Kg, i.v., Time 0.083 h, individual animals, read-out: B/P, Brian/Plasma): 1.37
Kp at 0.083 h (brain, iv, 1 mg/Kg, i.v., Time 0.083 h, mean, read-out: B/P, Brian/Plasma, Mean): 1.42
Kp at 0.25 h (brain, iv, 1 mg/Kg, i.v., Time 0.25 h, individual animals, read-out: B/P, Brian/Plasma): 2.01
Kp at 0.25 h (brain, iv, 1 mg/Kg, i.v., Time 0.25 h, mean, read-out: B/P, Brian/Plasma, Mean): 1.9
Kp at 0.5 h (brain, iv, 1 mg/Kg, i.v., Time 0.5 h, individual animals, read-out: B/P, Brian/Plasma): 2.58
Kp at 0.5 h (brain, iv, 1 mg/Kg, i.v., Time 0.5 h, mean, read-out: B/P, Brian/Plasma, Mean): 2.56
Kp at 1 h (brain, iv, 1 mg/Kg, i.v., Time 1 h, individual animals, read-out: B/P, Brian/Plasma): 4.58
Kp at 1 h (brain, iv, 1 mg/Kg, i.v., Time 1 h, mean, read-out: B/P, Brian/Plasma, Mean): 4.11
Kp at 2 h (brain, iv, 1 mg/Kg, i.v., Time 2 h, individual animals, read-out: B/P, Brian/Plasma): 5.36
Kp at 2 h (brain, iv, 1 mg/Kg, i.v., Time 2 h, mean, read-out: B/P, Brian/Plasma, Mean): 4.81
Kp at 4 h (brain, iv, 1 mg/Kg, i.v., Time 4 h, individual animals, read-out: B/P, Brian/Plasma): 14.8
Kp at 4 h (brain, iv, 1 mg/Kg, i.v., Time 4 h, mean, read-out: B/P, Brian/Plasma, Mean): 13.3
Kp at 8 h (brain, iv, 1 mg/Kg, i.v., Time 8 h, individual animals, read-out: B/P, Brian/Plasma): 11.7
Kp at 8 h (brain, iv, 1 mg/Kg, i.v., Time 8 h, mean, read-out: B/P, Brian/Plasma, Mean): 13.3
Kp at 24 h (brain, iv, 1 mg/Kg, i.v., Time 24 h, individual animals, read-out: B/P, Brian/Plasma): 14.7
Kp at 24 h (brain, iv, 1 mg/Kg, i.v., Time 24 h, mean, read-out: B/P, Brian/Plasma, Mean): 14.2
Kp at 0.25 h (brain, po, 30 mg/Kg, P.O., Time 0.25 h, individual animals, read-out: B/P, Brian/Plasma): 4.01
Kp at 0.25 h (brain, po, 30 mg/Kg, P.O., Time 0.25 h, mean, read-out: B/P, Brian/Plasma, Mean): 4.31
Kp at 0.5 h (brain, po, 30 mg/Kg, P.O., Time 0.5 h, individual animals, read-out: B/P, Brian/Plasma): 1.82
Kp at 0.5 h (brain, po, 30 mg/Kg, P.O., Time 0.5 h, mean, read-out: B/P, Brian/Plasma, Mean): 1.72
Kp at 1 h (brain, po, 30 mg/Kg, P.O., Time 1 h, individual animals, read-out: B/P, Brian/Plasma): 5.37
Kp at 1 h (brain, po, 30 mg/Kg, P.O., Time 1 h, mean, read-out: B/P, Brian/Plasma, Mean): 5.55
Kp at 2 h (brain, po, 30 mg/Kg, P.O., Time 2 h, individual animals, read-out: B/P, Brian/Plasma): 7.84
Kp at 2 h (brain, po, 30 mg/Kg, P.O., Time 2 h, mean, read-out: B/P, Brian/Plasma, Mean): 7.48
Kp at 4 h (brain, po, 30 mg/Kg, P.O., Time 4 h, mean, read-out: B/P, Brian/Plasma, Mean): 9.49
Kp at 8 h (brain, po, 30 mg/Kg, P.O., Time 8 h, individual animals, read-out: B/P, Brian/Plasma): 16.6
Kp at 8 h (brain, po, 30 mg/Kg, P.O., Time 8 h, mean, read-out: B/P, Brian/Plasma, Mean): 13.6
Kp at 24 h (brain, po, 30 mg/Kg, P.O., Time 24 h, individual animals, read-out: B/P, Brian/Plasma): 11.6
Kp at 24 h (brain, po, 30 mg/Kg, P.O., Time 24 h, mean, read-out: B/P, Brian/Plasma, Mean): 17.9
half-life (brain, IV 1 mg/kg, read-out: Half-life in brain (converted)): 8 h
half-life (brain, PO 30 mg/kg, read-out: Half-life in brain (converted)): 10 h
half-life (plasma, IV 1 mg/kg, read-out: Half-life in plasma (converted)): 8.2 h
half-life (plasma, PO 30 mg/kg, read-out: Half-life in plasma (converted)): 7.5 h
